The values below are quoted from earlier work in patent publication US7026316B2, “Dipeptidyl peptidase inhibitors for the treatment or prevention of diabetes” (Merck & Co., Inc., priority 2001, dated 2006).

One series has as its system mouse. Conditions: cyclophosphamide-induced neutropenia.
A further series has as its system rats. As to conditions: survival doubled from day 7 to day 14.
A further series addresses DP-IV (Homo sapiens, UniProt P27487).

Sequence of DP-IV (P27487 whole entry): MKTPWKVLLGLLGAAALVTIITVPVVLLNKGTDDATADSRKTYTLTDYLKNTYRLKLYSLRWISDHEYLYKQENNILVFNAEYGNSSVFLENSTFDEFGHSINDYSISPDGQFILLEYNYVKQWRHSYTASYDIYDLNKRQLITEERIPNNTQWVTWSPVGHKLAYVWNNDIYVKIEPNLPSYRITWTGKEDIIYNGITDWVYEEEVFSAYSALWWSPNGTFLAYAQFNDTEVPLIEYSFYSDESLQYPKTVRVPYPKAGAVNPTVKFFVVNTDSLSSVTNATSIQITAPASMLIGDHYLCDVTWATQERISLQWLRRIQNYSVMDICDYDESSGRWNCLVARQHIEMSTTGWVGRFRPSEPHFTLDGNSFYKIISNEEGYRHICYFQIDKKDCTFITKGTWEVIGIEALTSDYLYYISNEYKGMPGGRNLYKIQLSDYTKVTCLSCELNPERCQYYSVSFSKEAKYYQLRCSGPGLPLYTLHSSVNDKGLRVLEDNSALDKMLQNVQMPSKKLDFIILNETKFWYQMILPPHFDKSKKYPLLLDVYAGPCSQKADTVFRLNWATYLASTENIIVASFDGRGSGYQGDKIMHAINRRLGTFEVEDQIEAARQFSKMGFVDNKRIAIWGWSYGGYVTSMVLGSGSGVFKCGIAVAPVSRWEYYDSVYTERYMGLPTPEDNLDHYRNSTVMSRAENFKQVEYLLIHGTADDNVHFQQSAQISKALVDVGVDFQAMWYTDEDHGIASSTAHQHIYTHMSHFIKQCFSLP

Turning to `CC(C)[C@H](N)C(=O)N1CCC[C@H]1B(O)O` [Val-Boro-Pro], the hematopoiesis result with mouse was “stimulated hematopoiesis”.

On to `CC(C)N1CCC(c2ccccc2)(c2ccccc2)CC1` [Prodipine, Pro-Pro-diphenyl-phosphonate], for which the cardiac allograft survival with rats is listed as 14 day.

With `CC[C@H](C)[C@H](N)C(=O)N1CCC[C@H]1C(=O)N[C@H](C(=O)O)[C@@H](C)CC` [diprotin A], the “degradation of GRH in plasma to GRH[3-44]” value on DP-IV is on record as “prevented”.
